From paper PMC4451856, “Identification of a Peptide from In vivo Bacteriophage Display with Homology to EGFL6: A Candidate Tumor Vasculature Ligand in Breast Cancer” (Journal of molecular biomarkers & diagnosis, 2014)
Peptide text beside a SMILES is read from it. * marks the point of attachment. DOTA = O=C(O)CN1CCN(CC(=O)O)CCN(CC(=O)*)CCN(CC(=O)O)CC1

Assays:
[1] = system: SK-BR-3 cells; assay: Biotinylated peptide fluorescent microscopy; type: cell-based, human; details: fixed SK-BR-3 cells, 10 µM biotinylated peptide in PBS, 1 h room temperature, Neutravidin Texas Red detection
Experimental: (§1) All cell lines were grown to 80% confluency and fixed with 4% paraformaldehyde. Cells were dried onto microscope slides overnight followed by rehydration with PBS. Slides were blocked with 5% BSA in PBS for 2 h at room temperature. Biotinylated EGFL6 peptide was diluted to 10 µM in PBS and 100 µL was added to each cell sample for incubation at room temperature for 1 h. Slides were washed 3 times with 0.1% TBST and cells were incubated with Neutravidin Texas Red (Life Technologies, Rockville, MD) diluted to 5 µg/mL in 0.1% TBST for 1 h at room temperature. Washing was performed in the same manner and cells were visualized by an epifluorescent Nikon T1-SM inverted microscope (Nikon, Melville, NY).

[2] = in vivo; set-up: species or system SCID mice; details: SCID (outbred, Taconic), mouse, iv, total radioactivity
Experimental: Four- to 6-week-old Severe Combined Immunodeficient (SCID) out bred mice (Taconic, Germantown, NY) was maintained in approved pathogen-free institutional housing. Animal studies were conducted as outlined in the NIH Guidelines for the Care and Use of Laboratory Animals and the Policy and Procedures for Animal Research of the Harry S. Truman Veterans Memorial Hospital. MDA-MB-435 human breast cancer xenografts (5×10^6) were established by subcutaneous injection into the flank of SCID mice. Mice were utilized when visual tumors (~1–3mm^3) formed after approximately 5 weeks.
DOTA-EGFL6 peptide was radiolabeled with ^111In and purified peptide was prepared at 1.85 MBq/mL in sterile PBS. Three mice bearing MDA-MB-435 tumors were intravenously injected with ^111In-DOTA-EGFL6 and sacrificed at 2 h. Organs and tissues pertinent to tumor uptake and clearance were excised, weighed, and counted by gamma counter. Percentage of injected dose per gram (%ID/g) of tissue was reported to normalize uptake by tissue mass.

[3] = system: MDA-MB-435 human breast cancer xenograft; type: in vivo, SCID mice; details: 2 h post-injection, intravenous
Experimental: Four- to 6-week-old Severe Combined Immunodeficient (SCID) out bred mice (Taconic, Germantown, NY) was maintained in approved pathogen-free institutional housing. Animal studies were conducted as outlined in the NIH Guidelines for the Care and Use of Laboratory Animals and the Policy and Procedures for Animal Research of the Harry S. Truman Veterans Memorial Hospital. MDA-MB-435 human breast cancer xenografts (5×10^6) were established by subcutaneous injection into the flank of SCID mice. Mice were utilized when visual tumors (~1–3mm^3) formed after approximately 5 weeks. Radiolabeled, purified ^111In-DOTA-GSG-EGFL6 was diluted to 11.1 MBq in 100 µL of sterile PBS. The peptide was injected intravenously in a mouse bearing an MDA-MB-435 human breast cancer xenograft. Following injection, radiolabeled peptide was permitted to circulate for 2h, followed by euthanization by carbon dioxide. The treated mouse was imaged at the Harry S. Truman Veterans Memorial Hospital Biomolecular Imaging Center. Overnight (7h) image acquisition was performed with a Siemens Inveon Micro-SPECT/CT (Siemens, Knoxville, TN) equipped with mouse whole body 1.0 mm collimators. Data were processed with Inveon Research Workplace processing software and fan beam (Feldkamp) filtered back projection algorithms were used for reconstruction of the CT tomographic image.

[4] = system: HEK-293 cells; assay: 111In-DOTA-EGFL6 cell binding; type: cell-based, human; details: 37°C, 1 h, gamma counter, mean ± SD of 4 samples
Experimental: (§2) DOTA-EGFL6 was diluted to 1 mg/mL in water and incubated with 0.1 M ammonium acetate (pH 5) and 18.5 MBq of ^111In at 80°C for 1 h. Reactions were quenched by addition of 10 µM EDTA. Radiolabeled peptide was purified by reverse phase HPLC using a linear gradient of acetonitrile plus 0.1% trifluoroacetic acid from 5–95% over 35 minutes. Acetonitrile was evaporated by nitrogen gas flow, and peptide was d iluted to appropriate concentration using sterile PBS.
(§3) MDA-MB-435, MDA-MB-468, SK-BR-3 and HEK-293 cells were diluted to 2×10^6 cells/mL in Dulbelco’s Modified Eagle Medium (DMEM) with 0.1 mg/mL BSA. ^111In-DOTA-EGFL6 was diluted to 1×10^7 CPM/mL in DMEM plus 0.1% BSA and 100 µL of peptide was added to 200 µL of cells and incubated at 37°C for 1 h. Cells were washed three times with ice-cold PBS with 1% BSA and counted via gamma counter.

[5] = system: SK-BR-3 cells; assay: 111In-DOTA-EGFL6 cell binding; type: cell-based, human; details: 37°C, 1 h, gamma counter, mean ± SD of 4 samples
Experimental: as §2, §3

[6] = system: MDA-MB-468 cells; assay: 111In-DOTA-EGFL6 cell binding; type: cell-based, human; details: 37°C, 1 h, gamma counter, mean ± SD of 4 samples
Experimental: as §2, §3

[7] = system: MDA-MB-435 cells; assay: 111In-DOTA-EGFL6 cell binding; type: cell-based, human; details: 37°C, 1 h, gamma counter, mean ± SD of 4 samples
Experimental: as §2, §3

[8] = system: MDA-MB-435 cells; details: ref Previous work (reference number not given); cited from earlier work
[9] = system: HEK-293 cells; assay: Biotinylated peptide fluorescent microscopy; type: cell-based, human; details: fixed HEK-293 cells, 10 µM biotinylated peptide in PBS, 1 h room temperature, Neutravidin Texas Red detection
Experimental: as §1

[10] = system: MDA-MB-468 cells; assay: Biotinylated peptide fluorescent microscopy; type: cell-based, human; details: fixed MDA-MB-468 cells, 10 µM biotinylated peptide in PBS, 1 h room temperature, Neutravidin Texas Red detection
Experimental: as §1

[11] = system: MDA-MB-435 cells; assay: Biotinylated peptide fluorescent microscopy; type: cell-based, human; details: fixed MDA-MB-435 cells, 10 µM biotinylated peptide in PBS, 1 h room temperature, Neutravidin Texas Red detection
Experimental: as §1

For GTKWACCYGWRNSS [EGFL6 peptide], the “Peptide binding by fluorescent microscopy” value [1] was “undetectable”.

In the case of `C[C@H](NC(=O)[C@H](Cc1c[nH]c2ccccc12)NC(=O)[C@H](CCCCN)NC(=O)[C@@H](NC(=O)CNC(=O)CNC(=O)[C@H](CO)NC(=O)CNC(=O)CN1CCN(CC(=O)O)CCN(CC(=O)O)CCN(CC(=O)O)CC1)[C@@H](C)O)C(=O)N[C@@H](CS)C(=O)N[C@@H](CS)C(=O)N[C@@H](Cc1ccc(O)cc1)C(=O)NCC(=O)N[C@@H](Cc1c[nH]c2ccccc12)C(=O)N[C@@H](CCCNC(=N)N)C(=O)N[C@@H](CC(N)=O)C(=O)N[C@@H](CO)C(=O)N[C@@H](CO)C(=O)O` [^111In-DOTA-EGFL6, metal not drawn] ({DOTA}-GSGGTKWACCYGWRNSS-OH; N-terminus and C-terminus assumed), the tissue uptake at 2 h ([2]; Blood retention) is reported as 1.3 ± 0.51 %ID/g, the tissue uptake at 2 h ([2]; Kidney retention) is reported as 28.6 ± 4.24 %ID/g and the tissue uptake at 2 h ([2]; Non-target organ accumulation, all organs measured except the kidneys) is reported as under 1 %ID/g. It also gave a tissue to tissue ratio at 2 h ([2]; Tumor to blood ratio) of 0.27, a tissue to tissue ratio at 2 h ([2]; Tumor to muscle ratio) of 2.7 and a tissue uptake at 2 h ([2]; Tumor uptake) of 0.36 ± 0.08 %ID/g. The “Radiolabel at interface between xenograft and muscle (vasculature-like binding) in SPECT/CT image” value [3] was “strikingly high concentration of radiolabel”, the “Tumor uptake in SPECT/CT image” value ([3]; 11.1 MBq, one mouse) was “low tumor uptake” and the “Peptide binding, % of total peptide added” value (from here on “Peptide binding, %”) [4] was 5.4 ± 0.5%. The “Peptide binding, %” value [5] was 4.7 ± 0.2%, the “Peptide binding, %” value [6] was 10.5% ± 2.7 and the “Peptide binding, %” value [7] was 12.3 ± 1.0%.

In the case of “GTKSKCCYSLRRSS [3-G03, phage selected peptide with 64% homology to EGFL6]”, the “Binding to MDA-MB-435 cells in vitro” value [8] is given as “bound to MDA-MB-435 cells”.

In the case of “GTKWACCYGWRNSS [Biotinylated EGFL6 peptide, EGFL6 peptide with N-terminal GSG spacer conjugated at the N-terminus with biotin]”, the “Peptide binding by fluorescent microscopy” value [9] is reported as “no binding”, the “Peptide binding by fluorescent microscopy” value [10] is reported as “bound strongly” and the “Peptide binding by fluorescent microscopy” value [11] is reported as “bound strongly”.
